From patent US7037656B2, “Methods and compositions for identifying ligands for nuclear receptors” (priority 2000, dated 2006)

Key:
Assay in all cases: Yeast 6x EcRE-lacZ β-galactosidase transactivation assay
[1] = target: T1, Cf ΔA/B EcR + RXR γ + GRIP1 (Choristoneura fumiferana, UniProt O77240); type: cell-based, Choristoneura fumiferana; mouse; details: RH 5992 10 μM, 4 hours, DMSO control 0.200
T1 construct: human ubiquitin (76 aa) (N, cleaved yes); expressed in transfected cells; host or cells: yeast (Saccharomyces cerevisiae)
Description: The human RXR α (Genbank accession number X52773), mouse RXR β (Genbank accession number X66224) or mouse RXR γ (Genebank accession number X66225) subtypes were expressed in yeast-E. coli multicopy 2μ expression plasmids under regulation of CUP1 promoter with the LEU2 selective marker (1).
(§1) Briefly, yeast cells are cultured in 5 mL of YPD liquid medium overnight at 30° C. The cell culture was diluted 1:20 in YPD media and further grown until cell density reached an O.D of 0.6. at OD600. The cells were pelleted by centrifugation and washed with 10 mL of TE+0.1M lithium acetate. Cells are then resuspended in 10 mL TE+0.1M lithium acetate and incubated at 30° C. for 1 hour. Cells are collected and resuspended in 0.5 mL of TE+ 0.1M lithium acetate. Aliquots of cells (50 μL), were incubated for 15 minutes at 30° C. with 1–2 μg plasmid DNA in the presence of 5 μg of denatured salmon sperm DNA as DNA carrier. In the case of co-transformation, the indicated plasmids were added simultaneously. 50% polyethyleneglycol of molecular weight 4000, diluted in TE, was added to a final concentration of 35%. DMSO was added to the transformation solution simultaneously to a final concentration 3%. The samples were mixed well by vortexing and incubated for an additional 30 minutes at 30° C. The cell mixture is then heated for 15 minutes at 42° C. […]

[2] = target: T2, Dm ΔN EcR +Cf ΔA/B USP + GRIP1 (Drosophila melanogaster, UniProt P34021); type: cell-based, Drosophila melanogaster; Choristoneura fumiferana; details: RH 5992 10 μM, 4 hours, DMSO control 0.235
T2 construct: ubiquitin (human, 76 aa) (N, cleaved yes); expressed in transfected cells
Description: as §1, with “35%.” for “35%. DMSO was added to the transformation solution simultaneously to a final concentration 3%. The samples were mixed well by vortexing and incubated for an additional 30 minutes at 30° C. The cell mixture is then heated for 15 minutes at 42° C.”
(§2) Using the transformation method set forth above, yeast were co-transformed with a reporter gene as shown in FIG. 2 and the expression vector encoding the full-length D. melanogaster ecdysone receptor, DmEcR (FIG. 3A) in the presence or absence of the Dm EcR heterodimer partner, DmUSP (FIG. 4A). […] As the N-terminal portion of the Dm EcR receptor is reported to play a role in ligand independent transactivation, an expression vector containing an N-terminal deletion in the EcR was constructed (see FIG. 3B) and assessed in the β-galactosidase assays described above. […]

[3] = target: T3, Dm ΔN EcR + Cf USP + GRIP1 (Drosophila melanogaster, UniProt P34021); type: cell-based, Drosophila melanogaster; Choristoneura fumiferana; details: RH 5992 10 μM, 4 hours, DMSO control 1.149
T3 construct: ubiquitin (human, 76 aa) (N, cleaved yes); expressed in transfected cells
Description: as §1, with “35%.” for “35%. DMSO was added to the transformation solution simultaneously to a final concentration 3%. The samples were mixed well by vortexing and incubated for an additional 30 minutes at 30° C. The cell mixture is then heated for 15 minutes at 42° C.”
as §2

[4] = target: T4, Dm ΔN EcR +Aa USPa-form + GRIP1 (Drosophila melanogaster, UniProt P34021); type: cell-based, Drosophila melanogaster; Aedes aegypti; details: RH 5992 10 μM, 4 hours, DMSO control 0.243
T4 construct: ubiquitin (human, 76 aa) (N, cleaved yes); expressed in transfected cells
Description: as §1, with “35%.” for “35%. DMSO was added to the transformation solution simultaneously to a final concentration 3%. The samples were mixed well by vortexing and incubated for an additional 30 minutes at 30° C. The cell mixture is then heated for 15 minutes at 42° C.”
as §2

[5] = target: T5, Dm ΔN EcR +Aa USPb-form + GRIP1 (Drosophila melanogaster, UniProt P34021); type: cell-based, Drosophila melanogaster; Aedes aegypti; details: RH 5992 10 μM, 4 hours, DMSO control 0.251
T5 construct: ubiquitin (human, 76 aa) (N, cleaved yes); expressed in transfected cells
Description: as §1, with “35%.” for “35%. DMSO was added to the transformation solution simultaneously to a final concentration 3%. The samples were mixed well by vortexing and incubated for an additional 30 minutes at 30° C. The cell mixture is then heated for 15 minutes at 42° C.”
as §2

T1 sequence (O77240 entry or part of it, stated change not applied): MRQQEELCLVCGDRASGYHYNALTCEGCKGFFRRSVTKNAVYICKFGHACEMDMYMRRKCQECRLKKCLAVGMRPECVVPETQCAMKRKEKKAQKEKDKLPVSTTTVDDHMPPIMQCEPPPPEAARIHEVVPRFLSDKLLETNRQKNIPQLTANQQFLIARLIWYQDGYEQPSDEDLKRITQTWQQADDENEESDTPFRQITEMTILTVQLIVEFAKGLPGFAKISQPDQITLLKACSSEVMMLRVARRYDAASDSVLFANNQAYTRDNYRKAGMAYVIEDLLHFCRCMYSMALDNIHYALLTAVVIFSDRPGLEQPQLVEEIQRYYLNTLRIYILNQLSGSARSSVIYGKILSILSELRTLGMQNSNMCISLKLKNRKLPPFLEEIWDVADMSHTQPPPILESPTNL
T1 sequence (P28705 whole entry partner): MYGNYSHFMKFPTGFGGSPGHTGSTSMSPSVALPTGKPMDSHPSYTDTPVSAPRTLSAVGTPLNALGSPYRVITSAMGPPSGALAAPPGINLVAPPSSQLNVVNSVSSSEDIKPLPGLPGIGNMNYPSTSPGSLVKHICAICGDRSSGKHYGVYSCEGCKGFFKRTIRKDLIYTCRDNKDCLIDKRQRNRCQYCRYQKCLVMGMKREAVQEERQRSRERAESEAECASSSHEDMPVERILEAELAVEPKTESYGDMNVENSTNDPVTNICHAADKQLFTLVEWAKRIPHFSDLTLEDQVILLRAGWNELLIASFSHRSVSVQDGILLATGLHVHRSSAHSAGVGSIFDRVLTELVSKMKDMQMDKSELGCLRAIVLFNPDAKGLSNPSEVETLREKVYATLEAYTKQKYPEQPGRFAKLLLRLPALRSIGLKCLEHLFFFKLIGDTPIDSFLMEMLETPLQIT
T4 sequence (P34021 221-878, stated change not applied): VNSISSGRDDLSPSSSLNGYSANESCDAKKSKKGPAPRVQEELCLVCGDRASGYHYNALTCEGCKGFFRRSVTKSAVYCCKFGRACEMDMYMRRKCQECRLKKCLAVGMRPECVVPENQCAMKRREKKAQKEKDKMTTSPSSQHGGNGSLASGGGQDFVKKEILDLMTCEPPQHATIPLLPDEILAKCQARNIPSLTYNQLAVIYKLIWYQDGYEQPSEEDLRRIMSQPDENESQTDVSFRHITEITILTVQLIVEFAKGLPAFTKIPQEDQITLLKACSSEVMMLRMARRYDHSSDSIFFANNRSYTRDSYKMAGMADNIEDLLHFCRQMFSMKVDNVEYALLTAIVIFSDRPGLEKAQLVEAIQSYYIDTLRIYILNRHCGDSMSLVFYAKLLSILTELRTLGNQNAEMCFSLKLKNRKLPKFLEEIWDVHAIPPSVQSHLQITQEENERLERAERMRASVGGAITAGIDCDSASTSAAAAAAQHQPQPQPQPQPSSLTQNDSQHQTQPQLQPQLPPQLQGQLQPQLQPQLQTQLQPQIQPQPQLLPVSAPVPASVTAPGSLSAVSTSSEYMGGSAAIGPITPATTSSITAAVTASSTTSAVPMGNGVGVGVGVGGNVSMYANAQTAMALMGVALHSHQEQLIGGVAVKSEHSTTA
T3 sequence (P34021 221-878 limits assumed, stated change not applied): as the sequence (P34021 221-878, stated change not applied) above
T3 sequence (O76202 whole entry partner): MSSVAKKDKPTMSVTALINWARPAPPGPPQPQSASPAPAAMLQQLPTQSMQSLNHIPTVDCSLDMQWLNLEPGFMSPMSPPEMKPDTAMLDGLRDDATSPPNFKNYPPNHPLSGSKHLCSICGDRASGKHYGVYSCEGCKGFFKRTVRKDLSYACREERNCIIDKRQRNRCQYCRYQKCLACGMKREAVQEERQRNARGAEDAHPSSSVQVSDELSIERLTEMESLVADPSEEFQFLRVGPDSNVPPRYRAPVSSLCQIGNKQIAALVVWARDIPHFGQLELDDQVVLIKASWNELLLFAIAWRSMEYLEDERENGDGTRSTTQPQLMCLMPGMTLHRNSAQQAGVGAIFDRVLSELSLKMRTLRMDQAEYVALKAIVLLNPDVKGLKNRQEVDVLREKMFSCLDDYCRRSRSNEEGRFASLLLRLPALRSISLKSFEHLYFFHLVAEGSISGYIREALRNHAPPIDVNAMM
T3 sequence (Q61026 322-1121 partner limits assumed): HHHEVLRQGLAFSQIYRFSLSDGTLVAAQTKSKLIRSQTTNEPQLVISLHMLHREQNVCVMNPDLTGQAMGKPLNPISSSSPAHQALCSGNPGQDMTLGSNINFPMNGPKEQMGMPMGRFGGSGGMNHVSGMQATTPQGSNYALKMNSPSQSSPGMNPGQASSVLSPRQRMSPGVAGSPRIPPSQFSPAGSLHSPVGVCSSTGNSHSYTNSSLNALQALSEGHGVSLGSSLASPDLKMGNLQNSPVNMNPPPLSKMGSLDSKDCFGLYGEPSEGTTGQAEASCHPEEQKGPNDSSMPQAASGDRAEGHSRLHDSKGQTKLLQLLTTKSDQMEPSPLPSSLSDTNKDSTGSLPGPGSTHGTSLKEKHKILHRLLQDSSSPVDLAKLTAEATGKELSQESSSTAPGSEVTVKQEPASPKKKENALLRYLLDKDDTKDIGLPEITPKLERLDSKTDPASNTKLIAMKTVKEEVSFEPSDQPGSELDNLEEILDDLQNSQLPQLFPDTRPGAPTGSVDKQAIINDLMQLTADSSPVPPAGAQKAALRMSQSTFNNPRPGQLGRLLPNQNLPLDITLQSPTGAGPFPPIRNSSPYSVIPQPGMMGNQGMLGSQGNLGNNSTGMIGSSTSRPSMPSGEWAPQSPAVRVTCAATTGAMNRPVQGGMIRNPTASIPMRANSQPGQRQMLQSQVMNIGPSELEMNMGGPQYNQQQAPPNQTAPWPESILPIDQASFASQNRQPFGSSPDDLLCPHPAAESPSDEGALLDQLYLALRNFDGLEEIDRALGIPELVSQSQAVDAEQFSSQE
T5 sequence (P34021 221-878, stated change not applied): as the sequence (P34021 221-878, stated change not applied) above
T2 sequence (P34021 221-878, stated change not applied): as above
T2 sequence (O76202 with tags, fused parts or gaps partner): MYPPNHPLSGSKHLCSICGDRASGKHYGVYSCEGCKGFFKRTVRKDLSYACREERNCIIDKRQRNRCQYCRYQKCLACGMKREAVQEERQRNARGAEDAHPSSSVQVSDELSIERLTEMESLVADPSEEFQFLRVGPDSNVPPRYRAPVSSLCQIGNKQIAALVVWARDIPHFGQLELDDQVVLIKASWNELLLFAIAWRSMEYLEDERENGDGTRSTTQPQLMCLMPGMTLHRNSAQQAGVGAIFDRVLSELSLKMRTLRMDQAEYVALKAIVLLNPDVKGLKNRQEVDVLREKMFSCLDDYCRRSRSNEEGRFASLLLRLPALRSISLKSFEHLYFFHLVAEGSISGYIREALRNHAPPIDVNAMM

CCc1ccc(C(=O)NN(C(=O)c2cc(C)cc(C)c2)C(C)(C)C)cc1 [RH 5992, tebufenozide]
β-galactosidase activity [1]: 1.030 | β-galactosidase activity [2]: 0.590 | β-galactosidase activity [3]: 1.409 | β-galactosidase activity [4]: 1.860 | β-galactosidase activity [5]: 2.068
